Results reported in ChEMBL document CHEMBL3885881, “DrugMatrix”.

Species: Rattus norvegicus
Assay: DrugMatrix - Regimen: Daily Repeat
Assay type: toxicity, organism-based, Sprague-Dawley
Set-up: regimen Daily Repeat, gender Male, age 6-8 weeks
Conditions: in vivo, po, route oral GAVAGE, vehicle .5 % CMC; for BASOPHIL / EOSINOPHIL / ERYTHROCYTE COUNT / HEMATOCRIT / HEMOGLOBIN / LEUKOCYTE COUNT / LYMPHOCYTE / MEAN CORPUSCULAR HEMOGLOBIN / MEAN CORPUSCULAR HEMOGLOBIN CONCENTRATION / MEAN CORPUSCULAR VOLUME / MONOCYTE / NEUTROPHIL / PLATELET COUNT: tissue Blood; for ALANINE AMINOTRANSFERASE / ALBUMIN / ALKALINE PHOSPHATASE / ASPARTATE AMINOTRANSFERASE / BLOOD UREA NITROGEN / CHLORIDE / CHOLESTEROL / CREATINE PHOSPHOKINASE / CREATININE / GLUCOSE / PHOSPHORUS / POTASSIUM / SODIUM / TOTAL BILIRUBIN / TOTAL PROTEIN: tissue Plasma
[1] = 0 mg/kg, 72 h, dose level Control, time 3 day
[2] = 0 mg/kg, 120 h, dose level Control, time 5 day
[3] = 300 mg/kg, 72 h, dose level Low, time 3 day

## O=C1CCc2cc(OCCCCc3nnnn3C3CCCCC3)ccc2N1 [CILOSTAZOL]
[1]
  BASOPHIL: 0.68%
  EOSINOPHIL: 0.46%
  ERYTHROCYTE COUNT: 7.15 x10E6/uL
  HEMATOCRIT: 45.44%
  HEMOGLOBIN: 14.1 G/DL
  LEUKOCYTE COUNT: 9.78 x10E3/uL
  LYMPHOCYTE: 84.44%
  MEAN CORPUSCULAR HEMOGLOBIN: 19.72 pg
  MEAN CORPUSCULAR HEMOGLOBIN CONCENTRATION: 31 G/DL
  MEAN CORPUSCULAR VOLUME: 63.66 fL
  MONOCYTE: 2.14%
  NEUTROPHIL: 11.16%
  PLATELET COUNT: 1378.2 x10E3/uL
  ALANINE AMINOTRANSFERASE: 42.33 u/L
  ALBUMIN: 3.8 G/DL
  ALKALINE PHOSPHATASE: 388.17 u/L
  ASPARTATE AMINOTRANSFERASE: 68 u/L
  BLOOD UREA NITROGEN: 16.17 mg/dL
  CHLORIDE: 96.67 MEQ/L
  CHOLESTEROL: 71 mg/dL
  CREATINE PHOSPHOKINASE: 156.17 u/L
  CREATININE: 0.57 mg/dL
  GLUCOSE: 193.67 mg/dL
  PHOSPHORUS: 11.43 mg/dL
  POTASSIUM: 7 MEQ/L
  SODIUM: 140.33 MEQ/L
  TOTAL BILIRUBIN: 0.48 mg/dL
  TOTAL PROTEIN: 6.8 G/DL
[2]
  BASOPHIL: 1.47%
  EOSINOPHIL: 1%
  ERYTHROCYTE COUNT: 7.12 x10E6/uL
  HEMATOCRIT: 45.47%
  HEMOGLOBIN: 14.1 G/DL
  LEUKOCYTE COUNT: 11.38 x10E3/uL
  LYMPHOCYTE: 82.57%
  MEAN CORPUSCULAR HEMOGLOBIN: 19.82 pg
  MEAN CORPUSCULAR HEMOGLOBIN CONCENTRATION: 31.02 G/DL
  MEAN CORPUSCULAR VOLUME: 63.88 fL
  MONOCYTE: 2.2%
  NEUTROPHIL: 11.97%
  PLATELET COUNT: 1267 x10E3/uL
  ALANINE AMINOTRANSFERASE: 38 u/L
  ALBUMIN: 3.72 G/DL
  ALKALINE PHOSPHATASE: 391 u/L
  ASPARTATE AMINOTRANSFERASE: 65.83 u/L
  BLOOD UREA NITROGEN: 14.17 mg/dL
  CHLORIDE: 107.67 MEQ/L
  CHOLESTEROL: 61 mg/dL
  CREATINE PHOSPHOKINASE: 148.33 u/L
  CREATININE: 0.57 mg/dL
  GLUCOSE: 177.17 mg/dL
  PHOSPHORUS: 12.07 mg/dL
  POTASSIUM: 7.2 MEQ/L
  SODIUM: 151.5 MEQ/L
  TOTAL BILIRUBIN: 0.58 mg/dL
  TOTAL PROTEIN: 6.72 G/DL
[3]
  BASOPHIL: 0.4%
  EOSINOPHIL: 0.5%
  ERYTHROCYTE COUNT: 6.67 x10E6/uL
  HEMATOCRIT: 43%
  HEMOGLOBIN: 13.6 G/DL
  LEUKOCYTE COUNT: 12.31 x10E3/uL
  LYMPHOCYTE: 81.4%
  MEAN CORPUSCULAR HEMOGLOBIN: 20.4 pg
  MEAN CORPUSCULAR HEMOGLOBIN CONCENTRATION: 31.6 G/DL
  MEAN CORPUSCULAR VOLUME: 64.55 fL
  MONOCYTE: 2.4%
  NEUTROPHIL: 14%
  PLATELET COUNT: 1378 x10E3/uL
  ALANINE AMINOTRANSFERASE: 40.67 u/L
  ALBUMIN: 3.6 G/DL
  ALKALINE PHOSPHATASE: 331.33 u/L
  ASPARTATE AMINOTRANSFERASE: 59 u/L
  BLOOD UREA NITROGEN: 14.67 mg/dL
  CHLORIDE: 96 MEQ/L
  CHOLESTEROL: 75.33 mg/dL
  CREATINE PHOSPHOKINASE: 120.33 u/L
  CREATININE: 0.53 mg/dL
  GLUCOSE: 178.33 mg/dL
  PHOSPHORUS: 11.33 mg/dL
  POTASSIUM: 6.4 MEQ/L
  SODIUM: 141 MEQ/L
  TOTAL BILIRUBIN: 0.33 mg/dL
  TOTAL PROTEIN: 6.43 G/DL
